In PubChem BioAssay (NCI):
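Protocol summary: plate cells (96-well), add compound at 5 concentrations, incubate 48 h, interpolate endpoints linearly. TGI: total growth inhibition.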

Legend:
Assay in all cases: inhibition of tumour cell growth, NCI panel, 48 h
NCI-H226 lung = tested on: NCI-H226 lung
NCI-H460 lung = tested on: NCI-H460 lung
HOP-92 NSCLC = tested on: HOP-92 NSCLC
SK-MEL-5 melanoma = tested on: SK-MEL-5 melanoma
SN12C renal = tested on: SN12C renal
OVCAR-3 ovarian = tested on: OVCAR-3 ovarian
BT-549 breast = tested on: BT-549 breast
SNB-19 CNS = tested on: SNB-19 CNS
EKVX NSCLC = tested on: EKVX NSCLC
HCT-116 colon = tested on: HCT-116 colon
SF-268 CNS = tested on: SF-268 CNS
786-0 renal = tested on: 786-0 renal
OVCAR-8 ovarian = tested on: OVCAR-8 ovarian
IGROV1 ovarian = tested on: IGROV1 ovarian
PC-3 prostate = tested on: PC-3 prostate
KM12 colon = tested on: KM12 colon
A549 NSCLC = tested on: A549 NSCLC
UO-31 renal = tested on: UO-31 renal
RPMI-8226 leukemia = tested on: RPMI-8226 leukemia
DU-145 prostate = tested on: DU-145 prostate
CCRF-CEM leukemia = tested on: CCRF-CEM leukemia
HS 578T breast = tested on: HS 578T breast
COLO 205 colon = tested on: COLO 205 colon
SF-539 CNS = tested on: SF-539 CNS
ACHN renal = tested on: ACHN renal
HCT-15 colon = tested on: HCT-15 colon
SW-620 colon = tested on: SW-620 colon
HL-60(TB) leukemia = tested on: HL-60(TB) leukemia
HCC-2998 colon = tested on: HCC-2998 colon
HT29 colon = tested on: HT29 colon
MOLT-4 leukemia = tested on: MOLT-4 leukemia
A498 renal = tested on: A498 renal
UACC-257 melanoma = tested on: UACC-257 melanoma
MDA-MB-231 breast = tested on: MDA-MB-231 breast
OVCAR-5 ovarian = tested on: OVCAR-5 ovarian
SNB-75 CNS = tested on: SNB-75 CNS
M14 melanoma = tested on: M14 melanoma
CAKI-1 renal = tested on: CAKI-1 renal
MDA-MB-435 = tested on: MDA-MB-435
SK-MEL-2 melanoma = tested on: SK-MEL-2 melanoma
TK-10 renal = tested on: TK-10 renal
NCI/ADR-RES ovarian = tested on: NCI/ADR-RES ovarian
NCI-H23 lung = tested on: NCI-H23 lung
MCF7 breast = tested on: MCF7 breast
RXF 393 renal = tested on: RXF 393 renal
K-562 leukemia = tested on: K-562 leukemia
U251 CNS = tested on: U251 CNS
NCI-H522 lung = tested on: NCI-H522 lung
SK-OV-3 ovarian = tested on: SK-OV-3 ovarian
OVCAR-4 ovarian = tested on: OVCAR-4 ovarian
HOP-62 NSCLC = tested on: HOP-62 NSCLC
MALME-3M melanoma = tested on: MALME-3M melanoma
UACC-62 melanoma = tested on: UACC-62 melanoma
SR leukemia = tested on: SR leukemia
T-47D breast = tested on: T-47D breast
MDA-N = tested on: MDA-N
SF-295 CNS = tested on: SF-295 CNS
LOX IMVI melanoma = tested on: LOX IMVI melanoma
SK-MEL-28 melanoma = tested on: SK-MEL-28 melanoma

CCOC(=O)C12CC(C)=C(C)CC1CCCc1ccccc12 (stereo not drawn) gave a TGI (NCI-H226 lung) of 56 µM, a TGI (NCI-H460 lung) of 32.7 µM and a TGI (HOP-92 NSCLC) of 38.8 µM. It also gave a TGI (SK-MEL-5 melanoma) of 37.5 µM, a TGI (SN12C renal) of 58.3 µM and a TGI (OVCAR-3 ovarian) of 42.6 µM. The TGI (BT-549 breast) was > 100 µM, the TGI (SNB-19 CNS) was 83 µM and the TGI (EKVX NSCLC) was 49.5 µM. For the same compound, the TGI (HCT-116 colon) was 34.3 µM, the TGI (SF-268 CNS) was > 100 µM and the TGI (786-0 renal) was > 100 µM. For the same compound, the TGI (OVCAR-8 ovarian) was > 100 µM, the TGI (IGROV1 ovarian) was > 100 µM and the TGI (PC-3 prostate) was 68.1 µM. The TGI (KM12 colon) was > 100 µM, the TGI (A549 NSCLC) was > 100 µM and the TGI (UO-31 renal) was > 100 µM. For the same compound, the TGI (RPMI-8226 leukemia) was 34.2 µM, the TGI (DU-145 prostate) was > 100 µM and the TGI (CCRF-CEM leukemia) was 41.6 µM. For the same compound, the TGI (HS 578T breast) was > 100 µM, the TGI (COLO 205 colon) was 33.9 µM and the TGI (SF-539 CNS) was 85.7 µM. It also gave a TGI (ACHN renal) of 36 µM, a TGI (HCT-15 colon) of 59.8 µM and a TGI (SW-620 colon) of 51.8 µM. The TGI (HL-60(TB) leukemia) was 29.5 µM, the TGI (HCC-2998 colon) was 28.1 µM and the TGI (HT29 colon) was 36.5 µM. It also gave a TGI (MOLT-4 leukemia) of 52.3 µM, a TGI (A498 renal) of 62.7 µM and a TGI (UACC-257 melanoma) of 46.2 µM. For the same compound, the TGI (MDA-MB-231 breast) was 31.5 µM, the TGI (OVCAR-5 ovarian) was 50.9 µM and the TGI (SNB-75 CNS) was 71.1 µM. For the same compound, the TGI (M14 melanoma) was > 100 µM, the TGI (CAKI-1 renal) was > 100 µM and the TGI (MDA-MB-435) was 97.2 µM. For the same compound, the TGI (SK-MEL-2 melanoma) was 31.6 µM, the TGI (TK-10 renal) was 77.8 µM and the TGI (NCI/ADR-RES ovarian) was > 100 µM. For the same compound, the TGI (NCI-H23 lung) was > 100 µM, the TGI (MCF7 breast) was 35.2 µM and the TGI (RXF 393 renal) was 43.1 µM. For the same compound, the TGI (K-562 leukemia) was 78.2 µM, the TGI (U251 CNS) was 39.6 µM and the TGI (NCI-H522 lung) was 39.5 µM. The TGI (SK-OV-3 ovarian) was > 100 µM, the TGI (OVCAR-4 ovarian) was > 100 µM and the TGI (HOP-62 NSCLC) was > 100 µM. The TGI (MALME-3M melanoma) was 53.5 µM, the TGI (UACC-62 melanoma) was > 100 µM and the TGI (SR leukemia) was 84.4 µM. It also gave a TGI (T-47D breast) of 55.5 µM, a TGI (MDA-N) of 86.6 µM and a TGI (SF-295 CNS) of 86.3 µM. The TGI (LOX IMVI melanoma) was 30.8 µM and the TGI (SK-MEL-28 melanoma) was 92.7 µM.

For Cc1cccc(C)c1N=Nc1ccc(O)c(CN(C)C)c1, the TGI (NCI-H226 lung) was > 100 µM, the TGI (NCI-H460 lung) was > 100 µM and the TGI (HOP-92 NSCLC) was > 100 µM. For the same compound, the TGI (SK-MEL-5 melanoma) was 25.2 µM, the TGI (SN12C renal) was > 100 µM and the TGI (OVCAR-3 ovarian) was > 100 µM. The TGI (BT-549 breast) was > 100 µM, the TGI (SNB-19 CNS) was > 100 µM and the TGI (EKVX NSCLC) was > 100 µM. The TGI (HCT-116 colon) was > 100 µM, the TGI (SF-268 CNS) was > 100 µM and the TGI (786-0 renal) was > 100 µM. The TGI (OVCAR-8 ovarian) was > 100 µM, the TGI (IGROV1 ovarian) was > 100 µM and the TGI (PC-3 prostate) was > 100 µM. For the same compound, the TGI (KM12 colon) was > 100 µM, the TGI (A549 NSCLC) was > 100 µM and the TGI (UO-31 renal) was > 100 µM. For the same compound, the TGI (RPMI-8226 leukemia) was > 100 µM, the TGI (DU-145 prostate) was > 100 µM and the TGI (CCRF-CEM leukemia) was > 100 µM. The TGI (HS 578T breast) was > 100 µM, the TGI (COLO 205 colon) was 44.8 µM and the TGI (SF-539 CNS) was > 100 µM. For the same compound, the TGI (ACHN renal) was > 100 µM, the TGI (HCT-15 colon) was > 100 µM and the TGI (SW-620 colon) was > 100 µM. For the same compound, the TGI (HL-60(TB) leukemia) was > 100 µM, the TGI (HCC-2998 colon) was 48.8 µM and the TGI (HT29 colon) was 69.6 µM. For the same compound, the TGI (MOLT-4 leukemia) was > 100 µM, the TGI (A498 renal) was > 100 µM and the TGI (UACC-257 melanoma) was > 100 µM. The TGI (MDA-MB-231 breast) was > 100 µM, the TGI (OVCAR-5 ovarian) was > 100 µM and the TGI (SNB-75 CNS) was > 100 µM. The TGI (M14 melanoma) was 58.1 µM, the TGI (CAKI-1 renal) was > 100 µM and the TGI (MDA-MB-435) was > 100 µM. For the same compound, the TGI (SK-MEL-2 melanoma) was 88.8 µM, the TGI (TK-10 renal) was > 100 µM and the TGI (NCI/ADR-RES ovarian) was > 100 µM. For the same compound, the TGI (NCI-H23 lung) was > 100 µM, the TGI (MCF7 breast) was > 100 µM and the TGI (RXF 393 renal) was 46 µM. For the same compound, the TGI (K-562 leukemia) was > 100 µM, the TGI (U251 CNS) was > 100 µM and the TGI (NCI-H522 lung) was > 100 µM. The TGI (SK-OV-3 ovarian) was > 100 µM, the TGI (OVCAR-4 ovarian) was > 100 µM and the TGI (HOP-62 NSCLC) was > 100 µM. The TGI (MALME-3M melanoma) was 76.2 µM, the TGI (UACC-62 melanoma) was 64.6 µM and the TGI (SR leukemia) was > 100 µM. The TGI (T-47D breast) was 79.3 µM, the TGI (MDA-N) was > 100 µM and the TGI (SF-295 CNS) was > 100 µM. The TGI (LOX IMVI melanoma) was > 100 µM and the TGI (SK-MEL-28 melanoma) was 60.6 µM.
